Molecular target: T1, FTO (Mus musculus, UniProt Q8BGW1)
T1 construct: His tag (pET-28a) with peptide linker (N); made in house; host or cells: E. coli BL21-Gold(DE3)
Assay: 2-oxoglutarate decarboxylation (uncoupled 2-OG turnover) assay with purified FTO
Type: biochemical
Description: FTO was incubated with all necessary cofactors, in various buffers lacking a specific reagent (Fe^2+, ascorbate or DTT) and in the presence of N-oxalyl-glycine (NOG), a generic Fe^2+-2OG-dioxygenase inhibitor at a concentration of 0.5 mM. In addition to Fe^2+ (added in the form of (NH4)2Fe(II)(SO4)2) and 2OG, dithiothreitol (DTT) and sodium ascorbate were added to the reaction mixture: DTT is a reducing agent that helps to maintain Fe^2+.
These were diluted to a total volume of 100 μl with 50 mM TRIS, pH 7.5. All reagents were mixed and pipetted into a 5 ml plastic screw cap tube, the FTO was added to the tube as a separate drop. A 500 μl Eppendorf tube containing 200 μl Hyamine hydroxide (Fisher Scientific, CO2 trapping agent) was added to each tube and tubes were closed with a rubber septum. After incubation in an environmental shaker at 37° C. for half an hour, 200 μl methanol was added to the contents and the tubes were put on ice for 30 minutes to quench the reaction. The Eppendorf tubes containing the hyamine hydroxide were transferred to scintillation vials, mixed with 5 ml OptiPhase Liquid Scintillation Cocktail (Fisher Scientific) and total ^14C counts quantified using a Beckman L56500 Multi-Purpose Scintillation Counter.

T1 sequence (Q8BGW1 whole entry): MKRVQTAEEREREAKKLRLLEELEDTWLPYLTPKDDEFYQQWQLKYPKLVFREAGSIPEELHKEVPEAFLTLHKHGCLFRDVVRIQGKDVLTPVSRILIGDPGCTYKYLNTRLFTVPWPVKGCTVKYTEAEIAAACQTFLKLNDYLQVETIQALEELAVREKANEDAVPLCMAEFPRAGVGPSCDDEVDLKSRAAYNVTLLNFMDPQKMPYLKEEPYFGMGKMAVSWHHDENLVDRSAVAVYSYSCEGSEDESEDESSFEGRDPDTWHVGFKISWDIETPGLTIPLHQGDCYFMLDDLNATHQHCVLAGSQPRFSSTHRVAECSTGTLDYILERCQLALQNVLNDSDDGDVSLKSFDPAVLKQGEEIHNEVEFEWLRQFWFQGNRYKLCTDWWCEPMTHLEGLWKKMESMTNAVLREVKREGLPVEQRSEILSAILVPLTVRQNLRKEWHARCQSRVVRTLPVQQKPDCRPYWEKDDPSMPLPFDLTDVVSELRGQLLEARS

| Stimulation of FTO 2-OG turnover activity (uncoupled turnover) | Inhibition of FTO 2-OG turnover (uncoupled) (no methylated DNA substrate) | Compound |
| --- | --- | --- |
| stimulated |  | O=S(=O)([O-])[O-].[Fe+2] [FeSO4] |
|  | did not inhibit | O=C(O)C(=O)N[C@H](Cc1ccccc1)C(=O)O [NOFD, N-oxalyl D-phenylalanine] |

— patent publication US8445224B2, “Method for assaying FTO (2-oxoglutarate dependent oxygenase) activity” (Isis Innovation Limited, priority 2007, dated 2013)
